Values after ≈ are worked out from the molar mass of the structure shown. Read-outs that look alike come from different tables or passages of the source. Where a SMILES comes first, the peptide text is derived from it. The star is where a group is joined. Palmitoyl = CCCCCCCCCCCCCCCC(=O)*; Myristoyl = CCCCCCCCCCCCCC(=O)*
Legend:
[1] = tested on: Staphylococcus aureus NCTC Oxford; assay: microbe, parasite or virus in culture; assay type: cell-based; settings: for MIC: read-out: MIC S. aureus
Experimental: (§1) Staphylococcus aureus NCTC Oxford and Escherichia coli 0111-NCTC 8007 strains were obtained from the National Collection of Type Cultures, Colindale, UK MIC for each sample was determined in 96 well plates. The above sample in PBS was serially diluted in microtitre wells with media, RPMI-1640 to give concentrations from 2 mg/ml to 0.00375 mg/ml or from 1 mg/ml to 0.00375 mg/ml or from 0.5 mg/ml to 0.00375 mg/ml of RH01 in a final volume of 100 μl. Bacteria were incubated at 37° C. overnight in standard media to give approximately 10^8 bacteria/ml and 10 μl of this was added to each well. The plates were incubated at 37° C. overnight, and bacterial growth determined by formation of a pellet.
(§2) Staphylococcus aureus NCTC Oxford and Escherichia coli 0111-NCTC 8007 strains were obtained from the National Collection of Type Cultures, Colindale, UK. The MIC for each sample was determined in 96 well plates. The RH01 in PBS (see above) was serially diluted in microtitre wells with media (RPMI-1640) to give final concentrations of 2 mg/ml to 0.00375 mg/ml of RH01 in a final volume of 100 μl. Bacteria were incubated at 37° C. overnight in standard media to give approximately 10^8 bacteria/ml and 10 μl of this was added to each well. The plates were incubated at 37° C. overnight, and bacterial growth determined by formation of a pellet.

HSAff = target: T1, HSAff (Homo sapiens, UniProt P02768); assay: Displacement of albumin-bound diazepam from HSAff-diazepam (1:1) monitored by induced CD; assay type: binding
T1 construct: purchased Sigma-Aldrich Company Ltd catalogue number not given; lot 32H9300
T1 sequence (P02768 25-609): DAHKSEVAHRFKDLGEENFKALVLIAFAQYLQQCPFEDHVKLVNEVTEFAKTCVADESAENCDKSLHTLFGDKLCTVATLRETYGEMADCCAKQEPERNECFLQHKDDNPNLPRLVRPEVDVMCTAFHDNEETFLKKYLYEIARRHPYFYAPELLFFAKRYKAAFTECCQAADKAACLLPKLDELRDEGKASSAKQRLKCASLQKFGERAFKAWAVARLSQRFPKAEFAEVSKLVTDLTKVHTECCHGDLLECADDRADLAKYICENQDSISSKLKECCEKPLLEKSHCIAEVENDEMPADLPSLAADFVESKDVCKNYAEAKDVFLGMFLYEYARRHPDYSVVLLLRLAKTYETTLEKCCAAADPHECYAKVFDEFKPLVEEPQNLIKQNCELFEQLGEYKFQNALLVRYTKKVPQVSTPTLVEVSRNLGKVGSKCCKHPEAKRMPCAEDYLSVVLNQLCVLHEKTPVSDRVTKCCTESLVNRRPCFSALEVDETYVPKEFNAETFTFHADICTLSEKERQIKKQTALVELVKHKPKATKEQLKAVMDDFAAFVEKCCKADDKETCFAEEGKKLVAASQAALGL
Experimental: Diazepam (0.088 mg) was dissolved by sonication for 30 mins in distilled water (0.687 ml). Sodium palmitate (0.872 mg) was dissolved in water pH 8.8 (0.698 ml) by sonicating for 5 mins. […] The CD spectrum of the mixture was then recorded. Sodium palmitate (51 μl) was added to the cell and the mixture was gently mixed by rotating the cell several times. The CD spectrum of the mixture was recorded. This process was repeated twice over, each time the CD spectrum was recorded. The cell was then washed thoroughly with distilled water and ethanol. Distilled water (2.705 ml) was then placed in the 5 cm cell and CD spectrum recorded.
CD spectra were recorded with nitrogen flushed JASCO spectropolarimeter J600 using 4 s time constant, 10 nm/min scan speed and a spectral bandwidth of 2 nm. The induced CD spectra of bound diazepam were obtained by subtracting the spectrum of albumin from that of the HSA-diazepam mixture. The spectra were reported as Δε=εL−εR(M^−1cm^−1).
Diazepam and medium chain fatty acids are known to bind to albumin site II as discussed by T Peters, All about albumin, Academic Press, 1999, p116. The fatty acid molecules are devoid of any CD signal. […] In here, diazepam is used as a marker to show the binding of fatty acids and fatty acid containing molecules to albumin. […] Palmitic acid binds to at least five long chain fatty acid binding sites of which one is closely located to albumin site II as reported by Curry et al. (1998, Nature Structural Biology, 5, 827-835).

Pronase® = assay type: in vitro ADME
Experimental: HSA fatty acid free (2.359 mg) was dissolved in distilled water (3.93 ml) to give concentration 0.60 mg/ml. Pronase® (0.363 mg) was dissolved in distilled water (0.605 ml) to give a concentration 0.60 mg/ml.
HSA fatty acid free solution (0.2 ml) was placed in a 0.05 cm cell and the circular dichroism spectrum (CD) was recorded. The cell was then thoroughly washed with distilled water and ethanol. HSA fatty acid free solution (2.7 ml) was placed in a glass vial. Pronase® solution (27 μl) was added to HSA fatty acid free solution in the glass vial. The mixture was mixed gently and 200 μl was transferred to 0.05 cm cell. The cell was then incubated at 37° C. and CD spectra recorded at various incubation time intervals.
CD spectra were recorded with nitrogen flushed JASCO spectropolarimeters J600 4s time constant, 10 nm/min scan speed and a spectral bandwidth of 2 nm. […]
HSA fatty acid free solution (275 μl) was placed in a glass vial. […] Mixture (200 μl) was transferred into a 0.05 cm cell and CD spectrum was recorded. […] The cell was then incubated at 37° C. and CD spectra recorded at various incubation time intervals.
HSA with fatty acid solution (275 μl) was placed in a glass vial. […] Mixture (200 μl) was transferred into a 0.05 cm cell and CD spectrum was recorded. […] The cell was then incubated at 37° C. and CD spectra recorded at various incubation time intervals. […]

[2] = tested on: Escherichia coli 0111-NCTC 8007; assay type: cell-based; settings: for Minimum Inhibitory Concentration E. coli: NCTC 8007
Experimental: as §1, §2

BSAff = target: T2, BSAff (Bos taurus, UniProt P02769); assay: Diazepam binding to fatty acid free bovine serum albumin by induced CD; settings: fatty acid 0M/M
T2 construct: Bovine serum albumin essentially fatty acid free; purchased Sigma-Aldrich Company Ltd catalogue number not given; lot 100K7415
T2 sequence (P02769 25-607): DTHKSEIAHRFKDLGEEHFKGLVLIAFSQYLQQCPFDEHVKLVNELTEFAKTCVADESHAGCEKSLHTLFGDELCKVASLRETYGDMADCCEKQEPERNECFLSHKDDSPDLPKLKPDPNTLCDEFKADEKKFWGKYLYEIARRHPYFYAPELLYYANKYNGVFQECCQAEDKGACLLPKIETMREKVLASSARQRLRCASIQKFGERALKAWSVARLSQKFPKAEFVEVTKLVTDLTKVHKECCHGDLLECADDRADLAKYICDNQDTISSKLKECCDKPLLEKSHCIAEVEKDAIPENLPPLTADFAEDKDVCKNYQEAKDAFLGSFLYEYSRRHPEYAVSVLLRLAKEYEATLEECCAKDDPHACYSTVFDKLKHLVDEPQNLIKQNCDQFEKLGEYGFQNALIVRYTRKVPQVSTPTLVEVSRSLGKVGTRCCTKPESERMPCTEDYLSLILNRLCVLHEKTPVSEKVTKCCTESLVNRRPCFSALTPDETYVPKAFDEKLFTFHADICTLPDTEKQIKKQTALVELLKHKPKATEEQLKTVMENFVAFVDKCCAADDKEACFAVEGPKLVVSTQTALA
Experimental: BSAff (1.914 mg) was dissolved in distilled water (3.19 ml) to give concentration of 0.6 mg/ml. Diazepam (0.422 mg) was dissolved by sonication for 30 mins in distilled water (3.297 ml) to give a concentration of 0.128 mg/ml. BSAff solution (1.05 ml) was transferred to 2 cm cell and CD spectra was recorded. Diazepam (22 μl) was added to the BSAff in the 2 cm cell and the mixture was gently mixed by rotating the cell several times. The CD spectrum of the mixture was then recorded. The cell was then washed thoroughly with distilled water and ethanol. Distilled water (1.10 ml) was then placed in the 2 cm cell and CD spectrum recorded. CD parameters are as in example 1.

[3] = Staphylococcus aureus, 0.5 h, Table 2, peptide incubation time in mixture 30 min 25° C.
[4] = Staphylococcus aureus, Table 2, peptide incubation time in mixture 2 h 37° C.

CCCCCCCC(=O)O [CA, caprylic acid, reference compound]
MIC [1, 3]: > 800 µM
MIC [1, 4]: > 800 µM

CCCCCCCCCCCCCCCC(=O)O [PA, palmitic acid]
percentage of diazepam induced CD (HSAff; 1 molar equivalent added to the mixture HSAff-diazepam (1:1)): 88.5%
percentage of diazepam induced CD (HSAff; 2 molar equivalents added to the mixture HSAff-diazepam (1:1)): 60.0%
percentage of diazepam induced CD (HSAff; 3 molar equivalents added to the mixture HSAff-diazepam (1:1)): 18.6%
MIC [1, 3]: > 800 µM
MIC [1, 4]: > 800 µM

CCCCCCCCCCCCCC(=O)N[C@@H](Cc1ccccc1)C(=O)N[C@@H](C)C(=O)N[C@@H](CCCNC(=N)N)C(=O)N[C@@H](CCCCN)C(=O)NCC(=O)N[C@@H](C)C(=O)N[C@@H](CC(C)C)C(=O)N[C@@H](CCCNC(=N)N)C(=O)N[C@@H](CCC(N)=O)C(=O)O [RH01] (Myristoyl-FARKGALRQ-OH)
displacement of diazepam (DZ) from HSAff-DZ (1:1) (HSAff; added at different molar ratios, data not shown): decreased induced CD
MIC ([1]; NCTC Oxford, 2 h): 24 µM (≈ 30.2 µg/mL)
MIC ([1]; NCTC Oxford): 12 µM (≈ 15.1 µg/mL)
potency with HSAff compared to the lipopeptide alone or with HSAfa ([1]; from Table 1): twice as potent
stability towards Pronase degradation, comparison in words (Pronase®): stabilises fat free DBax HSA like HSAff
Minimum Inhibitory Concentration E. coli [2]: 48 µM
potency with HSAff compared to the lipopeptide alone or with HSAfa ([2]; from Table 1): twice as potent

CCCCCCCCCCCCCCCC(=O)NCCCC[C@H](NC(=O)[C@H](CC(N)=O)NC(=O)[C@H](CCCCN)NC(=O)[C@H](CCC(N)=O)NC(=O)[C@H](CCCNC(=N)N)NC(=O)[C@H](CC(C)C)NC(=O)[C@H](C)NC(=O)CNC(=O)[C@H](CCCCN)NC(=O)[C@H](CCCNC(=N)N)NC(=O)[C@H](C)NC(=O)[C@H](Cc1ccccc1)NC(=O)[C@H](CCCCN)NC(=O)CCCCCCCCCCCCCCC)C(N)=O [RH02] (Palmitoyl-KFARKGALRQKNK(Palmitoyl)-NH2)
Minimum Inhibitory Concentration S. aureus ([1]; NCTC Oxford): 3.7 µM
Minimum Inhibitory Concentration E. coli [2]: 62 µM

CCCCCCCCCCCCCCCC(=O)NCCCC[C@H](NC(=O)[C@H](CC(N)=O)NC(=O)[C@H](CCCCN)NC(=O)[C@H](CCCCNC(=O)CCCCCCCCCCCCCCC)NC(=O)[C@H](CCCNC(=N)N)NC(=O)[C@H](CC(C)C)NC(=O)[C@H](C)NC(=O)CNC(=O)[C@H](CCCCN)NC(=O)[C@H](CCCNC(=N)N)NC(=O)[C@H](C)NC(=O)[C@H](Cc1ccccc1)NC(=O)[C@H](CCCCN)NC(=O)CCCCCCCCCCCCCCC)C(N)=O [RH03] (Palmitoyl-KFARKGALRK(Palmitoyl)KNK(Palmitoyl)-NH2)
Minimum Inhibitory Concentration S. aureus ([1]; NCTC Oxford): 55 µM
Minimum Inhibitory Concentration E. coli [2]: 441 µM

CC(C)C[C@H](NC(=O)[C@H](C)NC(=O)CNC(=O)[C@H](CCCCN)NC(=O)[C@H](CCCNC(=N)N)NC(=O)[C@H](CCCCN)NC(=O)[C@H](Cc1ccccc1)NC(=O)[C@@H](N)CCCCN)C(=O)N[C@@H](CCCNC(=N)N)C(=O)N[C@@H](CCC(N)=O)C(=O)N[C@@H](CCCCN)C(=O)N[C@@H](CC(N)=O)C(=O)N[C@@H](CCCCN)C(N)=O [RH04]
Minimum Inhibitory Concentration S. aureus ([1]; NCTC Oxford): 145 µM
Minimum Inhibitory Concentration E. coli [2]: 620 µM

BSAff: bovine serum albumin essentially fatty acid free and essentially globulin-free
induced CD of diazepam bound to BSAff, in words (BSAff): characteristic induced CD

From patent US20040110678A1, “Novel drug delivery system” (priority 2001, published 2004)
